Among the data in ChEMBL document CHEMBL4418295, “Method for identifying modulators of GPCR GPR1 function” (2014) are EC50 values, retold here.

The structures appear in SMILES notation.

This assay concerns the target T1, Chemerin-like receptor 2 (Homo sapiens, UniProt P46091).
T1 sequence (P46091 whole entry): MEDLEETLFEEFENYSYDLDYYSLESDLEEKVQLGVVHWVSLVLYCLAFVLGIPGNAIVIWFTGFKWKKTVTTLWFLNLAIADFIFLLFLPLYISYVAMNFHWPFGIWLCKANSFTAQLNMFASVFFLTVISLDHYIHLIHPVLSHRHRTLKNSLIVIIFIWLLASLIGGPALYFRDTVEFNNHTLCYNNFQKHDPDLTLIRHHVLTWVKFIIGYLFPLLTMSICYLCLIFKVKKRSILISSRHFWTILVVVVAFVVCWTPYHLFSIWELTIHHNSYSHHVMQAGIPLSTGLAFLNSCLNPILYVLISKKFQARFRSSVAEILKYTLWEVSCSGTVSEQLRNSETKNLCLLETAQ
The experiment in a line: Agonist activity at recombinant human GPR1 expressed in CHOK1 PathHunter cells assessed as beta-arrestin 2 recruitment incubated for 90 mins by luminescence assay. The assay is classed as cell-based. Background: Arrestin recruitment assays detect the binding of arrestin to an activated receptor.

Consider `CC[C@H](C)[C@H](NC(=O)[C@H](CCC(=O)O)NC(=O)[C@@H](CO)NC(=O)[C@@H](NC(=O)[C@H](CC(C)C)NC(=O)[C@H](CC(C)C)NC(=O)[C@H](CC(C)C)NC(=O)[C@H](CC(C)C)NC(=O)[C@H](CS)NC(=O)[C@H](CO)NC(=O)[C@H](Cc1ccccc1)NC(=O)CNC(=O)[C@H](CCCNC(=N)N)NC(=O)[C@@H]1CCCN1C(=O)[C@H](C)NC(=O)[C@@H](N)CCSC)[C@@H](C)O)C(=O)N[C@@H](CC(=O)O)C(=O)N[C@@H](CC(C)C)C(=O)N1CCC[C@H]1C(=O)N[C@H](C(=O)N[C@@H](CCCCN)C(=O)N[C@@H](CCCNC(=N)N)C(=O)N[C@@H](CCCNC(=N)N)C(=O)N[C@@H](C)C(=O)O)C(C)C`, for which the EC50 (as a rule, the concentration at which the effect is half-maximal) came to 92.8 nM.
